We go through 13 compounds from patent US20240324595A1, “HERBICIDAL COMPOSITIONS” (SYNGENTA CROP PROTECTION AG, priority 2021, published 2024).

Holding throughout (assay type): in vivo
Assay [1] deals with Sorghum halapense (SORHA). Nature of the assay: Post-emergence efficacy, Sorghum halapense. The settings on record: 15 DAA. The source says:
(§1) When active ingredients are combined, the activity to be expected (E) for any given active ingredient combination obeys the so-called Colby Formula and can be calculated as follows (Colby, S. R., Calculating synergistic and antagonistic responses of herbicide combination, Weeds, Vol. 15, pages 20-22; 1967): • ppm=milligrams of active ingredient (a.i.) per litre • X=% action by first active ingredient using p ppm of the active ingredient • Y=% action by second active ingredient using q ppm of the active ingredient.
(§2) According to Colby, the expected action of active ingredients A+B using p+q ppm of active ingredient is represented by the following formula: […]
(§3) If the action actually observed (O) is greater than the expected action E then the action of the combination is super-additive, i.e. there is a synergistic effect. In mathematical terms, synergism corresponds to a positive value for the difference of (O−E). In the case of purely complementary addition of activities (expected activity), said difference (O−E) is zero. A negative value of said difference (O−E) signals a loss of activity compared to the expected activity.
(§4) The efficacy of various compositions of the present invention were tested against plants including the following species: Amaranthus retroflexus (AMARE) Cenchrus echinatus (CCHEC), Echinochloa crus-gali (ECHCG), Eleusine indica (ELEIN), Setaria faberi (SETFA) Sorghum halapense (SORHA) and Digitaria insularis (TRCIN). The compositions are applied post-emergence, and the tests evaluated at certain days-after-application (DAA) as indicated. The tests were evaluated (100=total damage to plant; 0=no damage to plant), and the results are shown below in tables B1 to B13.

For assay [2], the system named is Echinochloa crus-gali (ECHCG). Put plainly: Post-emergence efficacy, Echinochloa crus-gali.
Source text: as §1, §2, §3, §4

Assay [3] relates to Digitaria insularis (TRCIN). Nature of the assay: Post-emergence efficacy, Digitaria insularis.
Source text: as §1, §2, §3, §4

In assay [4] the test system is Eleusine indica (ELEIN). Put plainly: Post-emergence efficacy, Eleusine indica. The settings on record: 15 DAA.
Source text: as §1, §2, §3, §4

The test system of assay [5] is Cenchrus echinatus (CCHEC). Nature of the assay: Post-emergence efficacy, Cenchrus echinatus. To be noted: 14 DAA.
Source text: as §1, §2, §3, §4

The subject of assay [6] is Setaria faberi (SETFA). Put plainly: Post-emergence efficacy, Setaria faberi. To be noted: 15 DAA.
Source text: as §1, §2, §3, §4

Assay [7] has as its system Amaranthus retroflexus (AMARE). Nature of the assay: Post-emergence efficacy, Amaranthus retroflexus. To be noted: 13 DAA.
Source text: as §1, §2
If the action actually observed (O) is greater than the expected action E then the action of the combination is super-additive, i.e. there is a synergistic effect. […]
as §4

On to `Cc1nn(-c2cc(NS(C)(=O)=O)c(Cl)cc2Cl)c(=O)n1C(F)F` [Compound B3i, sulfentrazone, reference compound], for which the “Observed (100=total damage to plant; 0=no damage)” value in assay [1] (rate 60 g/ha) was determined as 13.

On to `c1cc[n+]2c(c1)-c1cccc[n+]1CC2` [Compound B4b1, diquat dibromide, reference compound], for which the “Observed (100=total damage to plant; 0=no damage)” value in assay [2] (Table B13, POST, 15 DAA, rate 60 g/ha) came out at 43.

In the case of `CCOC(=O)COc1ncccc1Oc1cc(-n2c(=O)cc(C(F)(F)F)n(C)c2=O)c(F)cc1Cl` [Compound B3c, epyrifenacil, reference compound], the “Observed (100=total damage to plant; 0=no damage)” value is given as 33 in assay [3] (POST, 16 DAA, rate 1 g/ha) and 16 in assay [4] (rate 25 g/ha (B3c)).

For `CC#Cc1ccc(C2=C(OC(=O)OC)C3CCC(C3)C2=O)c(OC)c1` (stereo not drawn) [Ic], the “Observed (100=total damage to plant; 0=no damage)” value in assay [3] (POST, 14 DAA, rate 100 g/ha) is recorded as 5; in assay [3] (POST, 16 DAA, rate 3.125 g/ha), 15; in assay [3] (Table B8, POST, 14 DAA, rate 0.47 g/ha), 0; in assay [3] (Table B8, POST, 14 DAA, rate 0.94 g/ha) it was 0; in assay [3] (Table B8, POST, 14 DAA, rate 1.88 g/ha) it was 11; in assay [5] (rate 3 g/ha), 50. The “Observed (100=total damage to plant; 0=no damage)” value is listed as 72 in assay [5] (rate 6 g/ha); 79 in assay [5] (rate 12.5 g/ha); 79 in assay [5] (rate 25 g/ha); 72 in assay [4] (rate 12.5 g/ha); 79 in assay [4] (rate 25 g/ha (Ic)); 10 in assay [6] (rate 3 g/ha). Moreover, the “Observed (100=total damage to plant; 0=no damage)” value is 29 in assay [6] (rate 6 g/ha); 4 in assay [7] (rate 7.5 g/ha); 14 in assay [2] (Table B7, POST, 20 DAA, rate 3.125 g/ha); 87 in assay [2] (Table B7, POST, 20 DAA, rate 25 g/ha); 45 in assay [2] (Table B10, POST, 15 DAA, rate 3.125 g/ha); 50 in assay [2] (Table B10, POST, 15 DAA, rate 6.25 g/ha). In addition, the “Observed (100=total damage to plant; 0=no damage)” value in assay [2] (Table B10, POST, 15 DAA, rate 12.5 g/ha) was 60; in assay [2] (Table B11, POST, 20 DAA, rate 3.125 g/ha), 14; in assay [2] (Table B12, POST, 13 DAA, rate 0.94 g/ha (Ic)) it was 3; in assay [2] (Table B12, POST, 13 DAA, rate 1.88 g/ha), 24; in assay [2] (Table B12, POST, 13 DAA, rate 7.5 g/ha), 54; in assay [2] (Table B13, POST, 15 DAA, rate 3.125 g/ha) it was 45. The “Observed (100=total damage to plant; 0=no damage)” value worked out at 50 in assay [2] (Table B13, POST, 15 DAA, rate 6.25 g/ha); 60 in assay [2] (Table B13, POST, 15 DAA, rate 12.5 g/ha); 28 in assay [1] (rate 3.125 g/ha); 45 in assay [1] (rate 6.25 g/ha); 75 in assay [1] (rate 12.5 g/ha).

As for `CP(=O)(O)CC[C@H](N)C(=O)O` [Compound B1c, L-glufosinate/glufosinate-P, reference compound], the “Observed (100=total damage to plant; 0=no damage)” value in assay [3] (POST, 14 DAA, rate 600 g/ha) is on record as 60.

Turning to `CCOC(=O)C(Cl)Cc1cc(-n2nc(C)n(C(F)F)c2=O)c(F)cc1Cl` (stereo not drawn) [Compound B3b, carfentrazone-ethyl, reference compound], in assay [7] (rate 3.75 g/ha), the “Observed (100=total damage to plant; 0=no damage)” value was determined as 75.

On to `C#CCN1C(=O)COc2cc(F)c(N3C(=O)C4=C(CCCC4)C3=O)cc21` [Compound B3d, flumioxazin, reference compound], for which the “Observed (100=total damage to plant; 0=no damage)” value is 8 in assay [2] (Table B7, POST, 20 DAA, rate 4 g/ha) and 49 in assay [2] (Table B7, POST, 20 DAA, rate 15 g/ha).

Consider `CCOC(=O)C1(C)CC(c2cc(-n3c(=O)cc(C(F)(F)F)n(C)c3=O)c(F)cc2Cl)=NO1` (stereo not drawn) [Compound B3l, 3-(2-chloro-4-fluoro-5-(3-methyl-2,6-dioxo-4-trifluoromethyl-3,6-dihydropyrimidin-1(2H)-yl)phenyl)-5-methyl-4,5-dihydroisoxazole-5-carboxylic acid ethyl ester, reference compound], for which the “Observed (100=total damage to plant; 0=no damage)” value in assay [2] (Table B12, POST, 13 DAA, rate 0.94 g/ha (B3l)) is listed as 33; in assay [2] (Table B12, POST, 13 DAA, rate 3.75 g/ha), 73.

With `O=C(O)CNCP(=O)(O)O` [Compound B2c, glyphosate, reference compound], the “Observed (100=total damage to plant; 0=no damage)” value in assay [5] (rate 125 g/ha) is 1.

Turning to `COC(=O)CCNC(=O)C(C)Sc1cc(-n2c(=O)cc(C(F)(F)F)n(C)c2=O)c(F)cc1Cl` (stereo not drawn) [Compound B3j, tiafenacil, reference compound], the “Observed (100=total damage to plant; 0=no damage)” value in assay [2] (Table B10, POST, 15 DAA, rate 8 g/ha) is 40; in assay [2] (Table B10, POST, 15 DAA, rate 16 g/ha) it was 55.

As to `C#CCN1C(=O)C(F)(F)Oc2cc(F)c(-n3c(=O)n(C)c(=S)n(C)c3=O)cc21` [Compound B3k, trifludimoxazin, reference compound], the “Observed (100=total damage to plant; 0=no damage)” value stood at 38 in assay [2] (Table B11, POST, 20 DAA, rate 4 g/ha) and 31 in assay [2] (Table B11, POST, 20 DAA, rate 30 g/ha).

As for `O=C(O)CC[n+]1ccc(-c2cccnn2)cn1.[Cl-]` [Compound B4c.27], in assay [6] (rate 37.5 g/ha), the “Observed (100=total damage to plant; 0=no damage)” value worked out at 37.

As to `CS(=O)(=O)NC(=O)c1cc(Oc2ccc(C(F)(F)F)cc2Cl)ccc1[N+](=O)[O-]` [Compound B3e, fomesafen, reference compound], the “Observed (100=total damage to plant; 0=no damage)” value is given as 15 in assay [3] (Table B8, POST, 14 DAA, rate 7.5 g/ha); 20 in assay [3] (Table B8, POST, 14 DAA, rate 15 g/ha); 35 in assay [3] (Table B8, POST, 14 DAA, rate 30 g/ha).
